Source: US12257247B2 (Monte Rosa Therapeutics AG, priority 2023, dated 2025)
Like-named read-outs stand apart in the source and are kept apart here.

Biological target: T1, VAV1 (Homo sapiens, UniProt P15498+Q96SW2)
T1 construct: A heterozygous VAV1 C-terminal HiBiT knock-in pool was generated at Monte Rosa Therapeutics from a clonal Jurkat cell; endogenous in cells; host or cells: Jurkat clone stably expressing LgBiT, homozygous GSPT1-G575N; heterozygous VAV1-HiBiT knock-in pool
Test: VAV1 degradation activity, VAV1-HiBiT knock-in Jurkat luminescence assay (Example A, Table 1)
Assay type: cell-based
Conditions: VAV1-HiBiT knock-in Jurkat cells, luminescence read at 6 and 24 hours; for Dmax: Jurkat
Procedure, shortened: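 Jurkat cells carrying VAV1-HiBiT knock-in, plated in RPMI/10% FBS with Endurazine live-cell substrate and pre-incubated ~16 h at 37° C. Compound dosed from 10 μM stock; luminescence read 6 and 24 h later. Response normalised to plate negative/positive controls, EC50 from 3-parameter logistic fit (hillslope 1).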

[1] = read-out: VAV1 DC50 (nM), class

Compound	Dmax (read-out: VAV1 Dmax %)	Dmax (read-out: VAV1 Dmax %, class)	DC50 (read-out: VAV1 DC50)	DC50 [1]
Cn1ccc(=O)n1Cc1ccc(-c2cccc(C3CCC(=O)NC3=O)c2Cl)cc1 (stereo not drawn) [Compound 158, 3-(2-chloro-4′-((2-methyl-5-oxo-2,5-dihydro-1H-pyrazol-1-yl)methyl)-[1,1′-biphenyl]-3-yl)piperidine-2,6-dione]	81.7%	60 to 90%	74.3 nM	≤ 100 nM
COc1cc(-c2cccc(C3CCC(=O)NC3=O)c2Cl)ccc1C(F)F (stereo not drawn) [Compound 125]	75.9%	60 to 90%	1530 nM	> 1000 nM
Cn1ccc(COc2ccc(-c3cccc(C4CCC(=O)NC4=O)c3Cl)cn2)n1 (stereo not drawn) [Compound 251, 3-(2-chloro-3-(6-((1-methyl-1H-pyrazol-3-yl)methoxy)pyridin-3-yl)phenyl)piperidine-2,6-dione]	73.8%	60 to 90%	354 nM	100 to 1000 nM

These reach a lower DC50 (read-out: VAV1 DC50). Values come first.

Dmax (read-out: VAV1 Dmax %)	Dmax (read-out: VAV1 Dmax %, class)	DC50 (read-out: VAV1 DC50)	DC50 [1]	Compound
97%	> 90%	7 nM	≤ 100 nM	O=C1CCC(c2cccc(-c3ccc(-n4ccccc4=O)cc3)c2Cl)C(=O)N1 (stereo not drawn) [Compound 185, 3-(2-chloro-4′-(2-oxopyridin-1(2H)-yl)-[1,1′-biphenyl]-3-yl)piperidine-2,6-dione]
95.5%	> 90%	15.2 nM	≤ 100 nM	O=C1CCC(c2cccc(-c3ccc(Cc4ccon4)cc3)c2Cl)C(=O)N1 (stereo not drawn) [Compound 455, 3-(2-chloro-4′-(isoxazol-3-ylmethyl)-[1,1′-biphenyl]-3-yl)piperidine-2,6-dione]
93.3%	> 90%	7.35 nM	≤ 100 nM	Cn1ccc(COc2ccc(-c3cccc([C@@H]4CCC(=O)NC4=O)c3Cl)cc2)n1 [Compound 209, (S)-3-(2-chloro-4′-((1-methyl-1H-pyrazol-3-yl)methoxy)-[1,1′-biphenyl]-3-yl)piperidine-2,6-dione]
